Measured values: patent US20240002430A1, “METHOD FOR PRODUCING PROTEIN COMPOSITIONS” (HOFFMAN-LA ROCHE INC., priority 2020, published 2024)

Key:
[1] = general statement in the description, no test described; cited from earlier work
lipase CalB2 = target: T1, lipase CalB2 (Moesziomyces antarcticus, UniProt P41365); experiment: Targeted LC-MS proteomics of lipase bound to bis-enol-ester functionalized magnetic beads; format: binding; conditions: compound C coupled to azide modified polystyrene magnetic beads; CalB2 + Herceptin mixture, over night 40° C.; after extensive washing; vs non-functionalized beads
T1 sequence (P41365 26-342): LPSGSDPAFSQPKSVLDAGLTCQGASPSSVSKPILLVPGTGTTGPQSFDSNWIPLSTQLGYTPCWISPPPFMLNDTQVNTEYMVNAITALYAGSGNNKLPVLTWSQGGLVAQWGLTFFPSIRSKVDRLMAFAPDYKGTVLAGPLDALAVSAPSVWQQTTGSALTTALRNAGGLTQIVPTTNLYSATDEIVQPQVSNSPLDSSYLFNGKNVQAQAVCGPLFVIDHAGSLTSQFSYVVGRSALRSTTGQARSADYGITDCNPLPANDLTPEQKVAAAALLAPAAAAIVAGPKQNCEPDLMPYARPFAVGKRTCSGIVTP
Protocol: Test sample: Herceptin (mAb; 0.2 μg/μl in Na-Phosphate-Buffer) as control protein for the LC-MS based proteomics workflow was mixed with the lipase CalB2 (CalB2; […] in Na-Phosphate-Buffer) in a ca. 1:1 (mol/mol) ratio) as target. The above-mentioned samples were addressed with compound C (bis-enol-ester) covalently coupled to 60 μg azide modified magnetic particles (60 μl of a […] aqueous solution were prepared) (Polystyrene based azide beads; CLK-1036-1, Jena-Bioscience) which were made by click reaction and purification (see protocol experiment Example 1 and general procedure described for the Jena-Bioscience click protocol). […]
The targeted LC-MS analysis was performed using Water/Acetonitrile gradients with TFA (0.05% v(v) as buffer. The separation column was a PepSwift Monolithic Capillary Column, 200 μm×5 cm, P/N: 161409. As mass spectrometer, a Thermo LTQ FT system was used. Further experimental design for quantitative analyses followed general experimental targeted LC-MS procedures. The proteins bound to the beads were applied to the LC-MS system by injection of 1 μl of the digested sample on the analytical column. […]

Question: For `CCCCCCCCCCC[C@@H](C[C@@H]1OC(=O)[C@H]1CCCCCC)OC(=O)[C@H](CC(C)C)NC=O` [Orlistat], which solubility in water [1] is on record?
Answer: highly insoluble in water

Question: Which “binding of model lipase CalB2 to functionalized beads (LC-MS peptide peak intensities, FIG. 6)” value (lipase CalB2) does the source give for `C#CCCCC(=C/OC(=O)CCCCCCCCCCC)/C=C/OC(=O)CCCCCCCCCCC` [bis-enol ester] here?
Answer: binds to beads functionalized with bis-enol ester even when subjected to extensive washing steps
